Converted amounts (≈) assume the structure as drawn.
Legend:
[1] = test system: Pseudomonas aeruginosa AJ 2116; test: Minimum Inhibitory Concentration (MIC) against Pseudomonas aeruginosa AJ 2116 in a culture; type: cell-based; conditions: AJ2116, minimum concentration required to inhibit growth of test organism in a culture
Procedure: Antibacterial activity was determined with regards to the compounds produced in the examples described above. Some of Comparative Minimum Inhibitory Concentrations (MIC) (the minimum concentration of the compound in micrograms per milliliter required to inhibit the growth of the test organism in a culture) obtained using Pseudomonas aeruginosa AJ 2116 as the test organism, are presented in Table 5.

[2] = Concentration in blood after oral administration to mice (oral absorption); type: in vivo; conditions: Mouse (ICR 5W male), oral 50 mg/kg; for concentration at 0.5 h: 30 minutes; for concentration at 1 h: 60 minutes; for concentration at 1.5 h: 90 minutes
From the text: The imidazolecarboxylic acid derivatives of the present invention have a good oral absorption, as is evident from Table 6.
Concentration in Blood (μg/ml)

| SMILES | MIC [1] [µg/mL] | concentration at 0.5 h [2] [µg/mL] | concentration at 1 h [2] [µg/mL] | concentration at 1.5 h [2] [µg/mL] |
| --- | --- | --- | --- | --- |
| CC1(C)S[C@@H]2[C@H](NC(=O)[C@H](NC(=O)c3[nH]cnc3[N+](=O)[O-])c3ccccc3)C(=O)N2[C@H]1C(=O)O [Example 1, D-α-(4-nitroimidazole-5-carboxyamide) benzyl penicillin] | 12.5 (≈ 25.6 µM) |  |  |  |
| Cc1nc(S)[nH]c1C(=O)N[C@@H](C(=O)N[C@@H]1C(=O)N2[C@@H]1SC(C)(C)[C@@H]2C(=O)O)c1ccccc1 [Example 8] | 25 (≈ 51.1 µM) |  |  |  |
| CCOC(=O)c1nc[nH]c1C(=O)N[C@@H](C(=O)N[C@@H]1C(=O)N2[C@@H]1SC(C)(C)[C@@H]2C(=O)O)c1ccccc1 [Example 13, D-α-(4-ethoxycarbonylimidazole-5-carboxyamide) benzylpenicillin] | 25 (≈ 48.5 µM) | 340 | 97 | 40 |
| CC1(C)S[C@@H]2[C@H](NC(=O)C(C(=O)O)c3ccccc3)C(=O)N2[C@H]1C(=O)O (stereo partly drawn) [Carbenicillin, reference compound] | 100 (≈ 264 µM) |  |  |  |
| CC1(C)S[C@@H]2[C@H](NC(=O)[C@H](N)c3ccccc3)C(=O)N2[C@H]1C(=O)O [Ampicillin, reference compound] | > 500 | 81 | 306 | 41 |
| CC1(C)S[C@@H]2[C@H](NC(=O)[C@H](NC(=O)c3[nH]cnc3Cl)c3ccccc3)C(=O)N2[C@H]1C(=O)O [Example 3] | 25 (≈ 52.3 µM) |  |  |  |

From US4451399A, “Imidazolecarboxylic acid derivatives” (priority 1979, dated 1984)
